Publication PMC6562543 (Marine Drugs, 2019)

Test system: CaV2.2 channels (α1B, α2δ1, and β3)
Assay type: cell-based, rat

## CSCC[C@@H]1NC(=O)[C@H](CC(C)C)NC(=O)[C@H](CCCNC(=N)N)NC(=O)[C@H](CO)NC(=O)[C@@H]2CSSC[C@@H]3NC(=O)[C@H](CO)NC(=O)CNC(=O)[C@H]([C@@H](C)O)NC(=O)[C@H](CSSC[C@H](N)C(=O)N[C@@H](CCCCN)C(=O)NCC(=O)N[C@@H](CCCCN)C(=O)NCC(=O)N[C@@H](C)C(=O)N[C@@H](CCCCN)C(=O)N2)NC(=O)[C@H](CSSC[C@@H](C(N)=O)NC(=O)[C@H](CCCCN)NC(=O)CNC(=O)[C@H](CO)NC(=O)[C@H](CCCNC(=N)N)NC3=O)NC(=O)[C@H](CC(=O)O)NC(=O)[C@H](Cc2ccc(O)cc2)NC1=O [MVIIA, ω-Conotoxin MVIIA]
  Hill slope: 1.296
2 µM
  inhibitory effect on CaV2.2 channel: more than 90%
SEM
  reduction of ICa amplitude: 98.24 ± 0.708%
